The test system of one experiment is Sprague Dawley (SD) rats. Description: ASSAY (I) efficacy testing on appetite (food intake) using an ad libitum fed rat model. Format: in vivo. The note with it: rat, 30 nmol/kg. In outline:
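Ad libitum fed SD rats (200–250 g) were housed singly on a reversed light/dark cycle and given one 0.01–3 mg/kg dose ip, po or sc just before lights-off, with 5–8 per dose group plus vehicle controls. Food intake was recorded hourly for 7 h, then at 24 h and sometimes 48 h; Grubbs outliers were excluded.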

In experiment [1] the target is T1, human amylin 3(a) receptor (human calcitonin receptor + RAMP-3) in BHK570 cells (Homo sapiens, UniProt O60896+P30988).
T1 construct: expressed in transfected cells
As to the kind of experiment: ASSAY (II)a functional assay, human amylin receptor (CRE luciferase). The class given is cell-based. The method, boiled down:
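BHK cells stably carrying a CRE-luciferase reporter plus calcitonin receptor, or calcitonin receptor with RAMP-3 for the amylin 3(a) receptor, were seeded and kept overnight at 37° C. Compounds were added in assay medium with 10% FBS and 10 mM Hepes, pH 7.4, for 3 hours at 37° C, then luminescence was counted.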

For experiment [2], the target named is T2, human amylin receptor (membranes from Amylin 3(a)/CRE-luc cells) (Homo sapiens, UniProt O60896+P30988).
T2 construct: expressed in transfected cells
T2 sequence (P30988 25-474): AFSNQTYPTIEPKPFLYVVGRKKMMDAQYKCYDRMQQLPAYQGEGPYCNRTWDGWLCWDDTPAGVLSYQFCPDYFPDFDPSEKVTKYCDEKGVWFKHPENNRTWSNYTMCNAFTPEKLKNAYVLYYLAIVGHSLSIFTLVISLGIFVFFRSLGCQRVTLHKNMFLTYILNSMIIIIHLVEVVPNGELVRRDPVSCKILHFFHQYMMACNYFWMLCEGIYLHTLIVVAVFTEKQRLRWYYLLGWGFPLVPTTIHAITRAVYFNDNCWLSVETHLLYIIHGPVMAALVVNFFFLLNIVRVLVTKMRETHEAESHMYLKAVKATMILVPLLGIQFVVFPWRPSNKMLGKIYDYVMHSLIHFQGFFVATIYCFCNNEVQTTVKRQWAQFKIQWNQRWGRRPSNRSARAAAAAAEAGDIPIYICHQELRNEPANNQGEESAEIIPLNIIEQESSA
T2 sequence (O60896 24-148 partner): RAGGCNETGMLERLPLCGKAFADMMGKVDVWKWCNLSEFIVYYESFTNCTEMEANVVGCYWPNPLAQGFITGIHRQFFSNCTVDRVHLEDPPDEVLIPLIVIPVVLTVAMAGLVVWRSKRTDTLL
Description: ASSAY (V) binding to the human amylin receptor (SPA, 125I-rat amylin).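 Also: competition binding of cell membranes (35 ng/µL) mixed with SPA beads in 384-well plates at 40 µL total volume, read by scintillation counting.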
Description: The binding assay was performed using scintillation proximity assay (SPA) beads (RPNQ0001) from PerkinElmer and cell membranes from the Amylin 3(a)/CRE-luc cells (as described in Assay (II)) were used. Membranes were prepared in the following way; the cells were rinsed with PBS and incubated with Versene for approximately 5 min before harvesting. The cells were flushed with PBS and the cell-suspension was centrifuged for 5 min at 1000 rpm. […] The resulting pellet was resuspended in buffer 2 and protein concentration was measured (BCA protein Assay, Pierce). The homogenate was kept cold during the whole procedure. The membranes were kept at −80° C. until use. The assay was performed in a 384 well Optiplate (PerkinElmer) in a total volume of 40 ul. Membranes were mixed with SPA beads. Final concentration of membranes 35 ng/μL final and SPA beads was 0.05 mg/well. Test-compounds were dissolved in DMSO and further diluted in assay buffer (50 mM Hepes, pH 7.4, 1 mM CaCl2, 5 mM MgCl2, 0.1% OA and 0.02% Tween20). […] Samples were analyzed on TopCounter™ (Packard). The IC50 was calculated using (one site binding competition analysis) GraphPad Prism5 as a measure of receptor affinity.

In the next experiment the target is T3, rat calcitonin receptor (Rattus norvegicus, UniProt P32214).
T3 construct: expressed in transfected cells; host or cells: BHK tk'ts 13 (transient, FuGENE 6), membranes
T3 sequence (P32214 25-479 isoform P32214-2 limits assumed): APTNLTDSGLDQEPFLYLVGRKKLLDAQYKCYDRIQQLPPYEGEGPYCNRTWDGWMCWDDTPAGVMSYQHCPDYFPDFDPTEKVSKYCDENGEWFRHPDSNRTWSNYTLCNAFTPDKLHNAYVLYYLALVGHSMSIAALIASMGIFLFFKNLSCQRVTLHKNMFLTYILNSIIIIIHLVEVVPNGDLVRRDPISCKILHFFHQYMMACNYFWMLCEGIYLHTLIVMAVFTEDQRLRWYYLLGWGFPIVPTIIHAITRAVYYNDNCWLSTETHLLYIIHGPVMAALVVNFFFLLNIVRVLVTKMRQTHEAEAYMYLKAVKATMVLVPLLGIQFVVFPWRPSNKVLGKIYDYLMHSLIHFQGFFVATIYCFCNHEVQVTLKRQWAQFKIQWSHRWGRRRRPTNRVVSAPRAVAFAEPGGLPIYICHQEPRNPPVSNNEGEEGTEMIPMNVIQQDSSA
As to the kind of experiment: ASSAY (VIII) binding to the rat calcitonin receptor. The note with it: Table 7, read-out: rCTR bind IC50. In outline: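 Transfect BHK tk′ts 13 cells transiently with rat calcitonin receptor, culture in DMEM containing 10% FBS, collect cells about 48 hours later, then prepare membranes.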

Setting [3] is: hCTR funct. EC50 divided by hAmylin-R funct. EC50.
Where [4] appears, read: hCTR funct. EC50 over hAmylin-R funct. EC50.
The mark [5] stands for this setting: human functional selectivity: hCTR funct. EC50 / hAmylin-R funct. EC50.
Setting [6] is: Table 5, selectivity, hCTR bind IC50 / hAmylin-R bind IC50.
[7] abbreviates: Table 5a, selectivity, hCTR bind IC50 / hAmylin-R bind IC50.
[8] abbreviates: Table 5b, selectivity, hCTR bind IC50 / hAmylin-R bind IC50.
The mark [9] stands for this setting: Table 5c, selectivity, hCTR bind IC50 / hAmylin-R bind IC50.
[10] abbreviates: Table 7, human binding selectivity, included for comparison.
The mark [11] stands for this setting: Table 7a (preferred compounds), human binding selectivity, included for comparison.
Where [12] appears, read: ratio of human calcitonin receptor binding IC50 to human amylin receptor binding IC50.

Each structure is given as a SMILES string. Numbered stars: 1 amine (or outer) side, 2 acyl side, 3 side chain; on linkers, the order of the positions; unused ones are H or OH. Bridge positions count the residues as written; N and C are the ends. Side chains are listed from the residue outwards. Peptide text beside a SMILES is read from it. * marks the point of attachment. C20 diacid = O=C(O)CCCCCCCCCCCCCCCCCCC(=O)*; γGlu = O=C(O)[C@H](CCC(=O)[*:2])N[*:1]; AEEA = NCCOCCOCC(=O)O

As for `CC[C@H](C)[C@H](NC(=O)[C@H](C)NC(=O)CNC(=O)[C@H](Cc1ccccc1)NC(=O)[C@H](CC(N)=O)NC(=O)[C@@H]1CCCN1C(=O)[C@H](CO)NC(=O)[C@H](CO)NC(=O)[C@H](Cc1c[nH]cn1)NC(=O)[C@H](CCCNC(=N)N)NC(=O)[C@H](CC(C)C)NC(=O)[C@H](Cc1ccccc1)NC(=O)[C@H](CC(N)=O)NC(=O)[C@H](C)NC(=O)[C@H](CC(C)C)NC(=O)[C@H](CCCNC(=N)N)NC(=O)[C@H](CCC(N)=O)NC(=O)[C@@H](NC(=O)[C@H](C)NC(=O)[C@@H]1CSSC[C@H](NC(=O)[C@@H](N)CCCCNC(=O)CC[C@H](NC(=O)CCCCCCCCCCCCCCCCCCC(=O)O)C(=O)O)C(=O)N[C@@H](CC(N)=O)C(=O)N[C@@H]([C@@H](C)O)C(=O)N[C@@H](C)C(=O)N[C@@H]([C@@H](C)O)C(=O)N1)[C@@H](C)O)C(=O)N1CCC[C@H]1C(=O)N[C@@H](CO)C(=O)N[C@@H](CO)C(=O)N[C@H](C(=O)N[C@@H](CC(N)=O)C(=O)N[C@H](C(=O)NCC(=O)N[C@@H](CO)C(=O)N[C@@H](Cc1c[nH]cn1)C(=O)N[C@H](C(=O)N[C@@H](Cc1ccc(O)cc1)C(N)=O)[C@@H](C)O)C(C)C)[C@@H](C)O` [Example 60], the “Food intake reduction 0-24 h 30 nmol/kg (%)” value in the experiment with Sprague Dawley (SD) rats is 69%. The “Food intake reduction 24-48 h 30 nmol/kg (%)” value with Sprague Dawley (SD) rats turned out to be 21%. For the same compound, the “Ratio hCT/hAmylin funct.” value in experiment [1] (setting [3]), in experiment [1] (setting [4]) and in experiment [1] (setting [5]) was 15.3 in each case. Also, the “Ratio hCT/hAmylin binding” value in experiment [2] (setting [6]), in experiment [2] (setting [7]), in experiment [2] (setting [8]), in experiment [2] (setting [9]), in experiment [2] (setting [10]) and in experiment [2] (setting [11]) was 45.2 each time. For the same compound, the “Ratio hCT/hAmylin binding” value in experiment [2] (setting [12]) was 45.2. Further, the IC50 on rat calcitonin receptor came to 0.0263 µM.
As for `CC[C@H](C)[C@H](NC(=O)[C@H](C)NC(=O)CNC(=O)[C@H](Cc1ccccc1)NC(=O)[C@H](CC(N)=O)NC(=O)[C@@H]1CCCN1C(=O)[C@H](CO)NC(=O)[C@H](CO)NC(=O)[C@H](Cc1c[nH]cn1)NC(=O)[C@H](CCCNC(=N)N)NC(=O)[C@H](CC(C)C)NC(=O)[C@H](Cc1ccccc1)NC(=O)[C@H](Cc1c[nH]cn1)NC(=O)[C@H](C)NC(=O)[C@H](CC(C)C)NC(=O)[C@H](CCCNC(=N)N)NC(=O)[C@H](CCC(N)=O)NC(=O)[C@@H](NC(=O)[C@H](C)NC(=O)[C@@H]1CSSC[C@H](NC(=O)[C@@H](N)CCCCNC(=O)COCCOCCNC(=O)CC[C@H](NC(=O)CCCCCCCCCCCCCCCCCCC(=O)O)C(=O)O)C(=O)N[C@@H](CC(N)=O)C(=O)N[C@@H]([C@@H](C)O)C(=O)N[C@@H](C)C(=O)N[C@@H]([C@@H](C)O)C(=O)N1)[C@@H](C)O)C(=O)N1CCC[C@H]1C(=O)N[C@@H](CO)C(=O)N[C@@H](CO)C(=O)N[C@H](C(=O)N1CCC[C@H]1C(=O)N[C@H](C(=O)NCC(=O)N[C@@H](CO)C(=O)N[C@@H](CC(N)=O)C(=O)N[C@H](C(=O)N[C@@H](Cc1ccc(O)cc1)C(N)=O)[C@@H](C)O)C(C)C)[C@@H](C)O` [Example 61] (H-K([AEEA-γGlu-C20 diacid])CNTATCATQRLAHFLRHSSPNFGAIPSSTPVGSNTY-NH2; disulfide 2-7 (inferred)), in the experiment on Sprague Dawley (SD) rats, the “Food intake reduction 0-24 h 30 nmol/kg (%)” value came out at 53%. Besides, in the experiment with Sprague Dawley (SD) rats, the “Food intake reduction 24-48 h 30 nmol/kg (%)” value is 18%. Besides, the “Ratio hCT/hAmylin funct.” value in experiment [1] (setting [3]), in experiment [1] (setting [4]) and in experiment [1] (setting [5]) was 10.9 throughout. Also, the “Ratio hCT/hAmylin binding” value in experiment [2] (setting [6]), in experiment [2] (setting [7]), in experiment [2] (setting [8]), in experiment [2] (setting [9]), in experiment [2] (setting [10]) and in experiment [2] (setting [11]) was 66.7 throughout. The “Ratio hCT/hAmylin binding” value in experiment [2] (setting [12]) is listed as 66.7. Besides, the IC50 on rat calcitonin receptor was 0.0334 µM.
Take `CC[C@H](C)[C@H](NC(=O)[C@H](C)NC(=O)CNC(=O)[C@H](Cc1ccccc1)NC(=O)[C@H](CC(N)=O)NC(=O)[C@@H]1CCCN1C(=O)[C@H](CO)NC(=O)[C@H](CO)NC(=O)[C@H](Cc1c[nH]cn1)NC(=O)[C@H](CCCNC(=N)N)NC(=O)[C@H](CC(C)C)NC(=O)[C@H](Cc1ccccc1)NC(=O)[C@H](Cc1c[nH]cn1)NC(=O)[C@H](C)NC(=O)[C@H](CC(C)C)NC(=O)[C@H](CCCNC(=N)N)NC(=O)[C@H](CCC(N)=O)NC(=O)[C@@H](NC(=O)[C@H](C)NC(=O)[C@@H]1CSSC[C@H](NC(=O)[C@@H](N)CCCCNC(=O)CC[C@H](NC(=O)CCCCCCCCCCCCCCCCCCC(=O)O)C(=O)O)C(=O)N[C@@H](CC(N)=O)C(=O)N[C@@H]([C@@H](C)O)C(=O)N[C@@H](C)C(=O)N[C@@H]([C@@H](C)O)C(=O)N1)[C@@H](C)O)C(=O)N1CCC[C@H]1C(=O)N[C@@H](CO)C(=O)N[C@@H](CO)C(=O)N[C@H](C(=O)N[C@@H](CC(N)=O)C(=O)N[C@H](C(=O)NCC(=O)N1CCC[C@H]1C(=O)N[C@@H](CC(N)=O)C(=O)N[C@H](C(=O)N[C@@H](Cc1ccc(O)cc1)C(N)=O)[C@@H](C)O)C(C)C)[C@@H](C)O` [Example 67] (H-K([γGlu-C20 diacid])CNTATCATQRLAHFLRHSSPNFGAIPSSTNVGPNTY-NH2; disulfide 2-7 (inferred); N-terminus assumed): the “Food intake reduction 0-24 h 30 nmol/kg (%)” value in the experiment with Sprague Dawley (SD) rats was 47%. For the same compound, the “Food intake reduction 24-48 h 30 nmol/kg (%)” value with Sprague Dawley (SD) rats turned out to be 0%. Moreover, the “Ratio hCT/hAmylin funct.” value in experiment [1] (setting [3]) and in experiment [1] (setting [5]) was 5.2 in each case. Besides, the “Ratio hCT/hAmylin binding” value in experiment [2] (setting [6]), in experiment [2] (setting [7]), in experiment [2] (setting [8]), in experiment [2] (setting [9]), in experiment [2] (setting [10]) and in experiment [2] (setting [11]) was 51.6 throughout. The “Ratio hCT/hAmylin binding” value in experiment [2] (setting [12]) worked out at 51.6. In addition, on rat calcitonin receptor, the half-inhibitory concentration (IC50) is 0.0147 µM.

Values taken from patent US9023789B2, “Amylin analogs and pharmaceutical compositions thereof” (Novo Nordisk A/S, priority 2012, dated 2015).
